Patent publication US20150105252A1, “SUBSTITUTED PYRAZOLES AS HERBICIDES” (E I DU PONT DE NEMOURS AND COMPANY, priority 2013, published 2015)

Experiments:
morningglory = assay: Test A preemergence; format: in vivo, Ipomoea spp.; conditions: preemergence
Procedure, shortened: (§1)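 Growth medium: loam soil blended with sand. Preemergence treatment used a directed soil spray right after planting; postemergence treatment targeted seedlings at one to two leaves (2–10 cm height). Response was judged by eye relative to untreated plants about 10 days later on a 0–100 control scale.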

crabgrass, large = assay: Test A postemergence; format: in vivo, Digitaria sanguinalis
Procedure, shortened: as §1

nutsedge, yellow = assay: Test C preemergence; format: in vivo, Cyperus esculentus; conditions: preemergence
Procedure, shortened: (§2)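 Scores of 0 (no effect) to 100 (complete control) were assigned by eye after 13–15 days, comparing treated pots with controls. Soil-applied (preemergence) treatments went onto seeds in loam and sand; foliar (postemergence) treatments onto 1- to 4-leaf plants in peat medium.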

oilseed rape = assay: Test C preemergence; format: in vivo, Brassica napus; conditions: preemergence
Procedure, shortened: as §2

wheat [1] = assay: Test A postemergence; format: in vivo, Triticum aestivum
Procedure, shortened: as §1

wheat [2] = assay: Test C preemergence; format: in vivo, Triticum aestivum; conditions: preemergence
Procedure, shortened: as §2

velvetleaf = assay: Test A preemergence; format: in vivo, Abutilon theophrasti; conditions: preemergence
Procedure, shortened: as §1

foxtail, giant [3] = assay: Test A preemergence; format: in vivo, Setaria faberii; conditions: preemergence
Procedure, shortened: as §1

pigweed = assay: Test A postemergence; format: in vivo, Amaranthus retroflexus
Procedure, shortened: as §1

sedge, umbrella = assay: Test B flood; format: in vivo, Cyperus difformis; conditions: 250 g ai/ha, visual rating on 0 to 100 scale (0 no effect, 100 complete control), 13 to 15 days
Procedure, shortened: (§3)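 Visual ratings (0 = no effect, 100 = complete control) versus untreated controls were taken 13–15 days after treatment of greenhouse plants. Treatment was added to paddy water held at 3 cm depth on 2-leaf-stage seedlings.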

corn [4] = assay: Test C preemergence; format: in vivo, Zea mays; conditions: preemergence
Procedure, shortened: as §2

ducksalad = assay: Test B flood; format: in vivo, Heteranthera limosa; conditions: 250 g ai/ha, visual rating on 0 to 100 scale (0 no effect, 100 complete control), 13 to 15 days
Procedure, shortened: as §3

corn [5] = assay: Test A preemergence; format: in vivo, Zea mays; conditions: preemergence
Procedure, shortened: as §1

galium = assay: Test C preemergence; format: in vivo, Galium aparine; conditions: preemergence
Procedure, shortened: as §2

foxtail, giant [6] = assay: Test C preemergence; format: in vivo, Setaria faberii; conditions: preemergence
Procedure, shortened: as §2

[7] = 125 g ai/ha, visual injury approx. 10 days after treatment
[8] = 500 g ai/ha, visual injury after approx. 10 days, 0 to 100 scale (0 no effect, 100 complete control)
[9] = Postemergence, 500 g ai/ha, 0 to 100 scale (0 no effect, 100 complete control)
[10] = postemergence, 125 g ai/ha, about 10 days, visual rating on 0 to 100 scale (0 no effect, 100 complete control)
[11] = 31 g ai/ha, visual rating, scale 0 to 100 (0 no effect, 100 complete control), 13 to 15 days
[12] = 62 g ai/ha, scale 0 to 100 (0 no effect, 100 complete control), 13 to 15 days
[13] = 125 g ai/ha, 13 to 15 days, scale 0 to 100, 0 = no effect, 100 = complete control
[14] = 250 g ai/ha, scale 0 to 100, 0 is no effect, 100 is complete control

CCNC(=O)c1cc(CCCl)n(Cc2ccnc(C(F)(F)F)c2)n1 [Compound 179]
Morningglory plant response rating (0 to 100 scale) (morningglory; [7]): 80
Morningglory plant response rating (morningglory; [8]): 100
Crabgrass, Large plant response rating (crabgrass, large; [9]): 90
Crabgrass, Large plant response rating (crabgrass, large; [10]): 90
Nutsedge, Yellow plant response rating (nutsedge, yellow; [11]): 10
Nutsedge, Yellow plant response rating (nutsedge, yellow; [12]): 15
Plant response rating, Nutsedge, Yellow (nutsedge, yellow; [13]): 75
Nutsedge, Yellow plant response rating (nutsedge, yellow; [14]): 85
Oilseed Rape plant response rating (oilseed rape; [11]): 60
Oilseed Rape plant response rating (oilseed rape; [12]): 85
Plant response rating, Oilseed Rape (oilseed rape; [13]): 100
Oilseed Rape plant response rating (oilseed rape; [14]): 100
Wheat plant response rating (wheat [1]; [9]): 70
Wheat plant response rating (wheat [1]; [10]): 30
Wheat plant response rating (wheat [2]; [11]): 0
Wheat plant response rating (wheat [2]; [12]): 0
Plant response rating, Wheat (wheat [2]; [13]): 80
Wheat plant response rating (wheat [2]; [14]): 85
Velvetleaf plant response rating (0 to 100 scale) (velvetleaf; [7]): 50
Velvetleaf plant response rating (velvetleaf; [8]): 100
Foxtail, Giant plant response rating (0 to 100 scale) (foxtail, giant [3]; [7]): 100
Foxtail, Giant plant response rating (foxtail, giant [3]; [8]): 100
Pigweed plant response rating (pigweed; [9]): 100
Pigweed plant response rating (pigweed; [10]): 100
Plant response rating, Sedge, Umbrella (sedge, umbrella): 80
Corn plant response rating (corn [4]; [11]): 5
Corn plant response rating (corn [4]; [12]): 10
Plant response rating, Corn (corn [4]; [13]): 30
Corn plant response rating (corn [4]; [14]): 95
Plant response rating, Ducksalad (ducksalad): 100
Corn plant response rating (0 to 100 scale) (corn [5]; [7]): 10
Corn plant response rating (corn [5]; [8]): 50
Galium plant response rating (galium; [11]): 98
Galium plant response rating (galium; [12]): 100
Plant response rating, Galium (galium; [13]): 100
Galium plant response rating (galium; [14]): 100
Foxtail, Giant plant response rating (foxtail, giant [6]; [11]): 98
Foxtail, Giant plant response rating (foxtail, giant [6]; [12]): 100
Plant response rating, Foxtail, Giant (foxtail, giant [6]; [13]): 100
Foxtail, Giant plant response rating (foxtail, giant [6]; [14]): 100
